Data: patent publication US20240083919A1, “Metal Complexes and Methods for the Same” (Colgate-Palmolive Company, priority 2020, published 2024)
Converted amounts (≈) assume the structure as drawn. Where two headings read alike, the source gives them in different places.

How the values were obtained:
[1] = system: Malassezia furfur; assay: MIC by doubling dilutions, visual turbidity, Malassezia furfur; type: cell-based; details: for MIC: about 35° C., 3 to 5 days, highest dilution that completely inhibited growth; for Final Dilution (Ratio): doubling dilutions from initial concentration 0.5% (CHA-Zn) or 1% (others)
Experimental: (§1) A suspension of Malassezia furfur was also prepared and exposed to each of the series of doubling dilutions. The samples were incubated at about 35° C. for 3 to 5 days or until growth was apparent in a growth control tube. Following incubation, each of the samples were visually examined for growth on the basis of turbidity.

[2] = system: Trichophyton rubrum; assay: MIC by doubling dilutions, visual turbidity, Trichophyton rubrum; type: cell-based; details: for MIC: about 35° C., 3 to 14 days, highest dilution that completely inhibited growth; for Final Dilution (Ratio): doubling dilutions from initial concentration 0.5% (CHA-Zn) or 1% (others)
Experimental: as §1, with “of Trichophyton rubrum” for “of Malassezia furfur”, “to 14” for “to 5”, “turbidity. […] It should be appreciated that a relatively lower MIC value indicates a relatively greater efficacy against the microbe.” for “turbidity.”

In the case of `CCCCCCCC(=O)NO` [CHA, caprylhydroxamic acid], the MIC ([1]; read-out: MIC) is reported as about 312 µg/mL (≈ 1960 µM), the “Final Dilution (Ratio)” value [1] is reported as 32 Ratio and the MIC ([2]; read-out: MIC) is reported as about 156 µg/mL (≈ 980 µM). For the same compound, the “Final Dilution (Ratio)” value [2] was 64 Ratio.
For `Cc1cc(CC(C)CC(C)(C)C)n(O)c(=O)c1.NCCO` (stereo not drawn) [Piroctone Olamine], the MIC [1] was 156 ppm and the “Final Dilution (Ratio)” value [1] was 64 Ratio.
In the case of `O=[N+]([O-])[O-].O=[N+]([O-])[O-].[Zn+2]` [Zinc Nitrate (Zn(NO3)2), zinc nitrate], the MIC [1] is reported as over 5000 ppm, the MIC ([1]; listed as zinc nitrate) is reported as over 5000 ppm and the “Final Dilution (Ratio)” value [1] is reported as 2 Ratio. The MIC [2] was about 2500 ppm and the “Final Dilution (Ratio)” value [2] was 4 Ratio.
In the case of “caprylhydroxamic-zinc complex [CHA-Zn complex]”, the “Final Dilution (Ratio)” value [1] is reported as 64 Ratio and the “Final Dilution (Ratio)” value [2] is reported as 64 Ratio.
zinc pyrithione [Zinc pyrithione (ZPT)] was tested, and the MIC [2] was 20 ppm and the “Final Dilution (Ratio)” value [2] was 512 Ratio.
